Results from US20120189673A1, “POLYPEPTIDES AND USES THEREOF” (priority 2009, published 2012).
Entries after “also recorded” stand apart in the source; their conditions may differ.

Key:
[1] = test system: E. coli LPS shock in C57BL/6 mice; assay: LPS model in vivo (LPS-induced shock): survival, cytokines, lungs; parameters: species or system mouse
Description: Histochemistry—For immunostaining, wound biopsies were fixed in 10% formalin, rehydrated and embedded in paraffin. Sections of 5 μm thickness were placed on poly-lysine coated glass slides, deparaffinized in xylene and rehydrated in graded alcohols. The slides were then treated with Dako antigen retrieval solution (Dako) for 40 min at 97° C., and incubated for 24 h at room temperature in a 1:50 dilution of polyclonal antibodies against TFPI (Sigma-Aldrich, in TBS with 1% BSA, 5% goat serum, 0.05% Tween 20). After three 20 min washes in TBS with 0.05% Tween 20, the sections were incubated with alkaline phosphatase conjugated secondary goat anti-rabbit IgG (Dako) diluted 1:1000 in the same buffer as the primary antibody and incubated for another 24 hours, followed by three 20 min washes. Sections were developed with Vulcan Fast Red chromogen (Biocare Medical, Concord, Calif.) and the slides were counterstained with Harris Hematoxylin (EM Science, Gibbstown, N.J.). For histological evaluation of lungs derived from the in vivo LPS-models in mice, tissues were embedded as above, sectioned and stained with hematoxylin and eosin by routine procedures (Histocenter, Gothenburg, Sweden).
LPS model in vivo—Male C57BL/6 mice (8-10 weeks, 22+/−5 g), were injected intraperitoneally with 18 mg E. coli 0111:B4 LPS (Sigma) per kg of body weight. Thirty minutes after LPS injection, 0.5 mg GGL27, GGL27(S), DSE25 or buffer alone was injected intraperitoneally into the mice. Survival and status was followed during seven days. For blood collection and histochemistry, mice were sacrificed 20 h after LPS challenge, and lungs were removed and fixed. These experiments were approved by the Laboratory Animal Ethics Committee of Malmo/Lund.
Cytokine assay—The cytokines IL-6, IL-10, MCP-1, INF-γ, and TNF-α were measured in plasma from mice subjected to LPS (with or without peptide treatment) using the Cytometric bead array; mouse inflammation kit (Becton Dickinson AB) according to the manufacturer's instructions.

[2] = test system: P. aeruginosa; assay: Complement (C1q, C5b-9/MAC, C3a) binding to P. aeruginosa in citrate plasma (immunoblot, flow cytometry); assay type: cell-based, Pseudomonas aeruginosa; details: citrate plasma with GGL27 at 3 μM
Description: Flow cytometry analysis—Fifty μl of bacteria (1-2×10^6 cfu) were incubated with 450 μl of human plasma either alone or supplemented with GGL27 (at 3 μM). Samples were incubated for 30 min or 1 h at 37° C., divided into two equal parts, centrifuged, washed with PBS, and resuspended in 100 μl PBS with rabbit polyclonal antibodies against either LGE27 (25), a C-terminal epitope of human C3a, or rabbit polyclonal antibodies against C1q (both at 1:100). The mixtures were subsequently incubated for 1 h at room temperature. Bacteria were pelleted and washed twice with PBS, incubated in 100 μl PBS with goat anti rabbit IgG FITC-labeled antibodies (1:500, Sigma) for 30 min at room temperature and washed twice with PBS. In another experiment bacteria were incubated for 1 h in citrate plasma together with 3 μM TAMRA-labeled GGL27 peptide, then pelleted and washed twice with PBS. Flow cytometry analysis (Becton-Dickinson, Franklin Lakes, N.J.) was performed using a FACS-Calibur flow cytometry system equipped with a 15 mW argon laser turned a 488 nm. […]
SDS-PAGE and immunoblotting—Human citrate plasma (450 μl) was incubated with 50 μl bacteria (1-2×10^9 cfu) either alone or supplemented with the peptide GGL27 at 3 μM. […] Precipitated material and supernatants were dissolved in SDS sample buffer and analyzed under reducing conditions by SDS-PAGE on 16.5% Tris-tricine gels (Clear PAGE™, C.B.S Scientific). […]

[3] = test system: E. coli; assay: FACS binding of TAMRA labeled peptide to E. coli; parameters: species or system Escherichia coli; details: 3 μM TAMRA labeled peptide in human plasma
Description: (§1) Flow cytometry analysis—Fifty μl of bacteria (1-2×10^6 cfu) were incubated with 450 μl of human plasma either alone or supplemented with GGL27 (at 3 μM). Samples were incubated for 30 min or 1 h at 37° C., divided into two equal parts, centrifuged, washed with PBS, and resuspended in 100 μl PBS with rabbit polyclonal antibodies against either LGE27 (25), a C-terminal epitope of human C3a, or rabbit polyclonal antibodies against C1q (both at 1:100). The mixtures were subsequently incubated for 1 h at room temperature. Bacteria were pelleted and washed twice with PBS, incubated in 100 μl PBS with goat anti rabbit IgG FITC-labeled antibodies (1:500, Sigma) for 30 min at room temperature and washed twice with PBS. In another experiment bacteria were incubated for 1 h in citrate plasma together with 3 μM TAMRA-labeled GGL27 peptide, then pelleted and washed twice with PBS. Flow cytometry analysis (Becton-Dickinson, Franklin Lakes, N.J.) was performed using a FACS-Calibur flow cytometry system equipped with a 15 mW argon laser turned a 488 nm. The bacterial population was selected by gating with appropriate settings of forward scatter (FSC) and sideward scatter (SSC).

[4] = test system: P. aeruginosa; assay: FACS binding of TAMRA labeled peptide to P. aeruginosa; parameters: species or system Pseudomonas aeruginosa; details: 3 μM TAMRA labeled peptide in human plasma
Description: as §1

[5] = test system: E. coli infected mice; assay: Animal infection model, E. coli; assay type: in vivo, mouse; details: E. coli i.p.; GGL27 200 μg i.p. after 30 min; P<0.001
Description: (§2) Animal infection model—Animals were housed under standard conditions of light and temperature and had free access to standard laboratory chow and water. P. aeruginosa 15159 bacteria were grown to logarithmic phase (OD620˜0.5), harvested, washed in PBS, diluted in the same buffer to 2×10^8 cfu/ml, and kept on ice until injection. Hundred microliter of the bacterial suspension was injected intraperitoneally (i.p.) into female Balb/c mice. Sixty minutes after the bacterial injection, 0.5 mg GGL27 or buffer alone was injected subcutaneously (s.c.) into the mice. In a corresponding E. coli infection model, bacteria were grown to early logarithmic phase (OD620˜0.4), harvested, washed in PBS, diluted in the same buffer to 1×10^8 cfu/ml, and kept on ice until injection. Hundred microliter of the bacterial suspension was injected i.p. into female Balb/c mice. Thirty minutes after the bacterial injection, 0.2 mg of GGL27 peptide or buffer alone was injected i.p. Data from two independent experiments were pooled.

[6] = test system: E. coli; assay: Complement (C1q, C5b-9/MAC, C3a) binding to E. coli in citrate plasma (immunoblot, flow cytometry); assay type: cell-based, Escherichia coli; details: citrate plasma with GGL27 at 3 μM
Description: as §1
SDS-PAGE and immunoblotting—Human citrate plasma (450 μl) was incubated with 50 μl bacteria (1-2×10^9 cfu) either alone or supplemented with the peptide GGL27 at 3 μM. The mixture was incubated for 30 min or 1 h at 37° C., centrifuged, and supernatants and bacteria collected. The bacterial pellet was washed with PBS and bound proteins eluted with 0.1 M glycine-HCl, pH 2.0. The pH of the eluted material was raised to 7.5 with 1 M Tris. Eluted proteins were precipitated by addition of 1 volume of trichloroacetic acid (TCA) to 4 volumes of sample, followed by incubation for 30 min on ice and centrifugation at 15 000 g (4° C. for 20 min). Precipitated material and supernatants were dissolved in SDS sample buffer and analyzed under reducing conditions by SDS-PAGE on 16.5% Tris-tricine gels (Clear PAGE™, C.B.S Scientific). Proteins and peptides were transferred to nitrocellulose membranes (Hybond-C). […]

[7] = test system: P. aeruginosa infected mice; assay: Animal infection model, P. aeruginosa; assay type: in vivo, mouse; details: P. aeruginosa i.p.; GGL27 500 μg s.c. after 1 h; P<0.001
Description: as §2

[8] = 20 h after LPS injection, peptide 500 μg

## GGLIKTKRKRKKQRVKIAYEEIFVKNM [GGL27, C-terminal peptide of TFPI, plasmin-generated]
[1]; 20 h after LPS injection, GGL27 500 μg
  inflammatory changes in lungs (histochemical analysis): marked attenuation of inflammatory changes; also recorded: marked reduction of inflammation and vascular leakage
[1]; [8]
  IFN-γ in blood: significant reductions
  IL-6 in blood: significant reductions
  IL-10 in blood: increased
  MCP-1 in blood: significant reductions
  TNF-α in blood: significant reductions
  overall (proinflammatory) cytokine release: attenuates proinflammatory cytokines
[1]; E. coli LPS i.p., peptide 500 μg i.p. 30 minutes after, followed 7 days
  survival: significantly increased survival
[1]; mouse model of LPS-shock
  anti-endotoxic effects in vivo: anti-endotoxic effects
[2]; FACS analysis
  generation and binding of C3a-containing fragments to the bacterial surface: increased generation and binding of these C3a-containing fragments
[2]
  C1q/MAC alterations: no significant C1q/MAC alterations
[3]
  binding to bacteria: avidly bound
[4]
  binding to bacteria: avidly bound
[5]
  survival: prolongs survival; also recorded: prolongation of survival
[6]
  binding of C1q to bacteria: enhances; also recorded: enhanced binding of C1q
  formation of MAC: enhances; also recorded: increased formation of MAC
  generation / binding of C3a: enhances; also recorded: significant generation of C3a
[7]
  survival: prolongs survival; also recorded: prolongation of survival
